The values that follow are results of earlier work, collected in patent US8518876B2, “Composition for long-acting peptide analogs” (Pharmaln Corporation, priority 2007, dated 2013).

As usually defined, the half-life is how long it takes for the measured level to halve.

For the data set the following is noted: cited from earlier work.

For `NC(=O)CC[C@@H]1NC(=O)[C@H](Cc2ccccc2)NC(=O)[C@H](Cc2ccc(O)cc2)NC(=O)[C@@H](N)CSSC[C@@H](C(=O)N2CCC[C@H]2C(=O)N[C@@H](CCCN=C(N)N)C(=O)NCC(N)=O)NC(=O)[C@H](CC(N)=O)NC1=O` [vasopressin], the half-life was 24 min.
